Measurements: BigSolDB 2.1

Conditions: in water

Structure (SMILES): O=C([O-])c1cccc(S(=O)(=O)O)c1.[Na+]
- solubility (mole fraction) (278.15 K): 0.0276
- solubility (mole fraction) (283.15 K): 0.0296
- solubility (mole fraction) (288.15 K): 0.032
- solubility (mole fraction) (293.15 K): 0.0346
- solubility (mole fraction) (298.15 K): 0.0372
- solubility (mole fraction) (303.15 K): 0.0417
- solubility (mole fraction) (308.15 K): 0.0459
- solubility (mole fraction) (313.15 K): 0.0519
- solubility (mole fraction) (318.15 K): 0.0584
- solubility (mole fraction) (323.15 K): 0.0687
